Results published in patent US20160011176A1, “METHOD AND DEVICE FOR EXAMINING MYOCARDIAL TOXICITY AND EVALUATING CARDIOMYOCYTES” (NATIONAL UNIVERSITY CORPORATION TOKYO MEDICAL AND DENTAL …, priority 2012, published 2016).

Tests used:
cardiomyocyte network [1] = assay: Excitation conduction transmitting through a linearly arranged cardiomyocyte network (transmission time, its fluctuation, FPD, STVFPD); format: cell-based
Description: FIGS. 65a, b schematically show an example of a method of such measurement of excitation conduction transmitting through a cardiomyocyte network. […] Arranged on a bottom surface of each cell housing on a substrate surface are respective electrodes (about 8 μm in diameter) for measurements of cellular potential, and from each of the electrodes, respective lead lines are extended. A single cardiomyocyte is received in each of the cell housings.
Specifically, in order to measure the temporal variation in the excitation conduction transmitting through the cellular population, an ignition peak of depolarization excited by an initial excitation conduction of each cell or each local point is measured, and at the same time, an ignition peak of an initial depolarization based on excitation conduction in another local area of adjacent another cell or adjacent another cellular population is measured; then a variation of a transmission rate or a transmission elapsed time is measured with respect to the distance between the two measurement points; and then the level of fluctuation of the transmission is quantitatively measured. Generally, the initial peak based on the excitation conduction is deemed to be a sodium spike. Thus, in view of this, the measurements of the initial ignition peak based on the excitation conduction are equivalent to the measurements of the sodium spikes. For example, where a drug with a big risk of proarrhlythmia is used, an increase in the fluctuation is utilized for the measurements. Here, the following are required: (1) a network of a plurality of cardiomyocytes is formed; (2) there is a means for accurately measuring the transmission delay time by measuring respective cellular potential wave form at two or more spatially different points within the network, and simultaneously accurately measuring the time of depolarization ignition spikes excited by the initial excitation conduction of the wave form; (3) in the case where a forced pulsation is provided, three or more electrodes are used to measure time required for transmission of the pulsation between respective electrodes at other measurement electrodes using the electrodes at both ends as stimulation electrodes, enabling measurements of temporal fluctuation of transmission rate or transmission time between the electrodes. As for the fluctuation, the STV as shown in Equation 3 in FIG. 24(c), for example, can be used for quantification. Here, Delayn and Delayn+1 (FIG. 65) can substitute for Vn and Vn+1. For transmission, when velocity is used, respective velocities can substitute for Delayn and Delayn+1. […] Thus, the transmission time will be measured as an extremely shorter transmission time than a transmission delay measured normally between adjacent electrodes. […]

cardiomyocyte network [2] = assay: Simultaneous measurement of extracellular potential (FP) and contractile force (optical imaging) in a cardiomyocyte network; format: cell-based
Description: FIG. 43 is a schematic diagram showing an example of a system configuration of the present invention to simultaneously measure the mechanical properties and electrical properties of cardiomyocytes. The present system includes (1) a cellular network chip that can be used for culturing a cell population, includes a plurality of micro-electrodes disposed on a substrate and can be used for acquiring cellular potential data of a small area of the population; (2) a chip mounter for mounting the chip and joining electrically with cell-stimulating and/or cellular potential measuring system; (3) an environmental control vessel which can be used to control the environment such as temperature, humidity, oxygen concentration and carbon dioxide concentration of the cell population being cultured; (4) a micro multi-electrode potential measurement system that can give stimulation to a specific cell of a cardiomyocyte population, and allows simultaneous continuous measurements of cellular potentials of various small areas in the cell population; (5) one or more position-coordinate probe microparticles configured to measure changes in shape of myocardial cells and allow easy identification of cardiomyocytes using a plastic, polymer, glass or metal microparticles such as polystyrene microparticles, glass microparticles or gold microparticles of sizes from at minimum about 0.1, 0.2 μm, 0.3 μm, 0.4 μm, 0.5 μm, 0.6 μm, 0.7 μm, or preferably about 0.8 μm, more preferably about 0.9 μm, or most preferably about 1 μm to at most about 500 μm, 400 μm, 300 μm, preferably about 200 μm, more preferably about 100 μm or most preferably about 50 μm, wherein the particles are disposed in the cell population by mixing them on the surface of the cardiomyocyte population in the cell network chip or in the cell population and culturing them; (6) an optical image capturing system for optically measuring the microparticles, wherein the system includes a light source, an optical microscope and an image-capturing camera to capture the images of the microparticles; and (7) a computer system for image analysis, cellular potential analysis, stimulus control and/or integrated data acquisition, wherein the system is capable of measurements of cellular potential and analysis of waveforms of the potential, measurements of cell displacements by image analysis and feedback stimulation based on the analysis results. In the measurements using the device system, as for the stimulus to cause depolarization of the myocardial cells, the stimulus can be provided by selecting mainly from three means, i.e., (A) measurements using conduction of autonomous pulsation of the cardiomyocyte population, (B) measurements of conduction by providing a forced electrical stimulation from outside to a specific cell in the cardiomyocyte population and (C) measurements of conduction by providing a feed-back stimulus at a specific timing to meet the relationship of the delay time and the value of the cellular potential based on the cell voltage measured data to the specific cells in the cardiomyocyte population.
FIG. 44 is an example of a data acquisition monitor screen showing an example of data obtained from an example of a system configuration of the present invention to simultaneously measure the mechanical properties and the electrical properties of cardiomyocytes. In a setting of this example, a large number of polystyrene microparticles are placed on the surface of the cardiomyocyte population, a probe-particle displacement-observation window for five of the polystyrene microparticles selected as probes is set, and the center of gravity of the window moves with the movement of the microparticles in the window, thereby displacement of the particular probe microparticles can be measured continuously as a change in vector time in the directions of the X-axis and Y-axis. […]

| SMILES | fluctuation of FPD (STVFPD) (cardiomyocyte network [1]; FIG. 66e) | FPD (as indicator of toxicity) (cardiomyocyte network [1]; FIG. 66d) | fluctuation of time required for transmission (cardiomyocyte network [1]; concentration over 1 μM) | transmission rate between adjacent electrodes (relative to no drug) (cardiomyocyte network [1]; concentration over 1 μM) | angle fluctuation against a decrease in contractile force (cardiomyocyte network [2]; 10 nM) | angle fluctuation (contraction direction) (cardiomyocyte network [2]; 100 nM) | contractile forces (time variation) (cardiomyocyte network [2]; 100 nM) | electrical firing of excitatory conduction of cells (cardiomyocyte network [2]; 100 nM) | electrophysiological excitation (cardiomyocyte network [2]; 1000 nM) | mechanical contraction (cardiomyocyte network [2]; 1000 nM) |
| --- | --- | --- | --- | --- | --- | --- | --- | --- | --- | --- |
| CC(C)(C)c1ccc(C(O)CCCN2CCC(C(O)(c3ccccc3)c3ccccc3)CC2)cc1 (stereo not shown) [terfenadine] | barely recognizable | is not seen | increases | suddenly decreased | – | – | – | – | – | – |
| COc1ccc(CCN(C)CCCC(C#N)(c2ccc(OC)c(OC)c2)C(C)C)cc1OC (stereo not shown) [verapamil] | – | – | – | – | barely increases | rapid fluctuation of contractile direction in the angular direction | disappear rapidly | is maintained | does not occur | does not occur |
